According to US9297810B2, “CD40L-binding agent based platelet aggregation assays” (BIOGEN IDEC MA INC., priority 2005, dated 2016):
Where “and” joins values, the source holds several entries; their conditions need not be identical. Equal entries are not always repeated. Entries after “also recorded” stand apart in the source; their conditions may differ. Each block holds one molecule with its values, some of them ahead of it.

Legend:
[1] = test system: ADP-Activated Platelets / resting platelets (platelet rich plasma); assay: Platelet aggregation assay (PRP, Biodata PAP-4 aggregation profiler); format: cell-based, human; conditions: for effect on aggregation of resting platelets: no ADP; for effect on the aggregation of ADP-activated platelets: wide range of ADP concentrations
Description: All platelets used in the in vitro platelet aggregation experiments were isolated from healthy human volunteers who denied ingesting aspirin or aspirin containing compounds within 10 days. Aggregation assays were performed on PRP. Approximately 50 mL of whole blood was collected in aliquots in 4.5 mL vacutainer tubes containing 0.5 mL of 3.8% sodium citrate. PRP was prepared by centrifuging the anticoagulated blood at 200 g for 10 minutes and harvesting the supernatant.
The Biodata 4-channel platelet aggregation profiler (PAP-4; Biodata Corp., Hatboro, Pa.) was blanked using a cuvette containing only platelet poor plasma (PPP). A 350 μL aliquot of PRP, containing approximately 2 to 5×10^8/mL platelets, was added to a cuvette containing a stir bar. Anti-CD40L antibody, human IgG, normal human serum, CD40-Fc, or anti-hFc were added in a total volume of 100 μL. The loaded cuvette was placed in the machine and the reaction components mixed prior to the addition of ADP.
Aggregation was initiated with the addition of sub-optimal concentration of ADP in 50 μL (final concentration varies for each individual sample). The aggregation profiler has four ports, which can run simultaneously. An aggregation tracing was generated for each sample for four minutes following the addition of ADP. At the end of the tracing, the instrument calculates the percentage of aggregation by comparing the transmission of light through the sample to the transmission of light through the PPP blank. A titration was performed at the beginning of each experiment, and subsequent runs were performed at a suboptimal ADP concentration.

[2] = biological target: T1, CD40L on the platelet surface (Homo sapiens, UniProt P29965); assay: Binding of biotin-conjugated anti-CD40L antibody to platelets (western blotting with HRP-streptavidin); conditions: data not shown
T1 construct: Platelets were incubated with a biotin-conjugated anti-CD40L antibody to determine whether CD40L is present on the surface of platelets; endogenous in cells
T1 sequence (P29965 1-261): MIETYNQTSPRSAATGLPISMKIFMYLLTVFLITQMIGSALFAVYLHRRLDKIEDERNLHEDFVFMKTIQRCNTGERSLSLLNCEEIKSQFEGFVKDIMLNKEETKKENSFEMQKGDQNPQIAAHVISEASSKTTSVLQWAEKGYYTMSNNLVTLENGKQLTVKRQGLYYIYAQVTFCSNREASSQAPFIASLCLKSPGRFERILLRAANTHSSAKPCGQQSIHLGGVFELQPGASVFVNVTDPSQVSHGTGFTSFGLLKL

[3] = result in words, listed as Anti-CD40L antibody

Molecule: BG9588: Research-grade anti-CD40L antibody prepared at Biogen; table column BG9588 corresponds to it
effect on aggregation of cross-linking of antibody bound to CD40L on activated platelets ([1]; 2 μg/mL, cross-linked with anti-hFc (Table 5)): may enhance aggregation under limited conditions
effect on platelet aggregation of anti-CD40L antibody cross-linked by sCD40L ([1]; FIG. 3, 233 μg/mL antibody and 30 μg/mL sCD40L, PRP of ten healthy donors, sub-optimal ADP): affected; also recorded: enhanced aggregation occurred with platelets isolated from some, but not all, healthy donors; also recorded: induced
effect on platelet aggregation together with sCD40L ([1]; FIG. 4, 200 μg/mL with sCD40L 30 μg/mL, 0.75 μM ADP, one donor): specifically enhanced
% of Aggregation ([1]; Table 1, 5 μg/mL, ADP 0.00 μM (resting platelets)): 11%
% of Aggregation ([1]; Table 1, 5 μg/mL, ADP 0.37 μM): 15%
% of Aggregation ([1]; Table 1, 5 μg/mL, ADP 0.70 μM): 24%
% of Aggregation ([1]; Table 1, 5 μg/mL, ADP 2.00 μM): 21%
% of Aggregation ([1]; Table 1, 5 μg/mL, ADP 6.70 μM): 71%
% of Aggregation ([1]; Table 1, 5 μg/mL, ADP 20.00 μM, PRP, four-minute tracing): 72%
% of Aggregation ([1]; Table 2, 5 μg/mL, ADP 0.37 μM): 10%
% of Aggregation ([1]; Table 2, 5 μg/mL, ADP 0.70 μM): 10%
% of Aggregation ([1]; Table 2, 5 μg/mL, ADP 2.00 μM): 12%
% of Aggregation ([1]; Table 2, 5 μg/mL, ADP 6.70 μM): 78%
% of Aggregation ([1]; Table 2, 5 μg/mL, ADP 20.00 μM): 80%
% of Aggregation ([1]; Table 3, 5 μg/mL, ADP 0.00 μM (resting platelets)): 3%
% of Aggregation ([1]; Table 3, 5 μg/mL, ADP 0.30 μM): 10%
% of Aggregation ([1]; Table 3, 5 μg/mL, ADP 0.60 μM): 10%
% of Aggregation ([1]; Table 3, 5 μg/mL, ADP 1.25 μM): 12%
% of Aggregation ([1]; Table 3, 5 μg/mL, ADP 2.50 μM): 62%
% of Aggregation ([1]; Table 3, 5 μg/mL, ADP 5.00 μM): 67%
% of Aggregation ([1]; Table 3, 5 μg/mL, ADP 10.00 μM): 69%
% of Aggregation ([1]; Table 3, 5 μg/mL, ADP 20.00 μM): 68%
% of Aggregation ([1]; Table 4, 1.25 μg/mL, ADP 0.00 μM): 3%
% of Aggregation ([1]; Table 4, 2.50 μg/mL, ADP 0.00 μM): 5%
% of Aggregation ([1]; Table 4, 5.00 μg/mL, ADP 0.00 μM): 3%
% of Aggregation ([1]; Table 4, 10.00 μg/mL, ADP 0.00 μM): 3%
% of Aggregation ([1]; Table 4, 20.00 μg/mL, ADP 0.00 μM): 3%
% of Aggregation ([1]; Table 5, BG9588 2 μg/mL + anti-hFc 2.22 μg/mL, ADP 0.0 μM): 3%
% of Aggregation ([1]; Table 5, BG9588 2 μg/mL + anti-hFc 2.22 μg/mL, ADP 0.5 μM): 8%
% of Aggregation ([1]; Table 5, BG9588 2 μg/mL + anti-hFc 2.22 μg/mL, ADP 1.0 μM): 76%
% of Aggregation ([1]; Table 5, BG9588 2 μg/mL + anti-hFc 6.66 μg/mL, ADP 0.0 μM): 3%
% of Aggregation ([1]; Table 5, BG9588 2 μg/mL + anti-hFc 6.66 μg/mL, ADP 0.5 μM): 8%
% of Aggregation ([1]; Table 5, BG9588 2 μg/mL + anti-hFc 6.66 μg/mL, ADP 1.0 μM): 84%
% of Aggregation ([1]; Table 5, BG9588 2 μg/mL + anti-hFc 20.00 μg/mL, ADP 0.0 μM): 3% and 4%
% of Aggregation ([1]; Table 5, BG9588 2 μg/mL + anti-hFc 20.00 μg/mL, ADP 0.5 μM): 8%
% of Aggregation ([1]; Table 5, BG9588 2 μg/mL + anti-hFc 20.00 μg/mL, ADP 1.0 μM): 83%
% of Aggregation ([1]; Table 5, BG9588 2 μg/mL alone, ADP 0.0 μM): 3%
% of Aggregation ([1]; Table 6, resting platelets, BG9588 2 μg/mL + serum 0.00032x): 6%
% of Aggregation ([1]; Table 6, resting platelets, BG9588 2 μg/mL + serum 0.0016x): 6%
% of Aggregation ([1]; Table 6, resting platelets, BG9588 2 μg/mL + serum 0.008x): 7%
% of Aggregation ([1]; Table 6, resting platelets, BG9588 2 μg/mL + serum 0.04x): 6%
% of Aggregation ([1]; Table 6, resting platelets, BG9588 2 μg/mL + serum 0.2x): 6%
% of Aggregation ([1]; Table 6, resting platelets, BG9588 2 μg/mL + serum 1.0x): 9%
effect on platelet aggregation of cross-linked anti-CD40L antibody ([1]; cross-linked with 2.22 μg/mL anti-hFc, ADP 1.0 μM (Table 5 lines 109 and 110)): increased aggregation
effect on platelet aggregation of cross-linked anti-CD40L antibody ([1]; cross-linked with 20 μg/mL or 6.66 μg/mL anti-hFc): did not affect
enhancing effect on platelet aggregation of cross-linked anti-CD40L antibody ([1]; cross-linked with anti-hFc, lower concentration of ADP): not observed
effect on aggregation of resting platelets [1, 3]: do not induce
effect on aggregation of resting platelets ([1]; result in words, listed as anti-CD40L antibody): not affected
effect on platelet aggregation ([1]; result in words): does not affect
effect on the aggregation of ADP-activated platelets [1, 3]: do not induce the aggregation of resting platelets or affect; also recorded: do not affect
effect on the aggregation of ADP-activated platelets ([1]; result in words, listed as Research-grade anti-CD40L antibody): did not affect
effect on platelets in the presence of normal human serum ([1]; with normal human serum (Table 6)): not affected

effect of preincubation on binding of biotin-conjugated anti-CD40L antibody to activated platelets [2]: inhibited binding
B1: sCD40L: recombinant soluble CD40 ligand prepared at Biogen, cross-linking agent (protein, UniProt P29965 47-261, looked up)
extracellular domain: HRRLDKIEDERNLHEDFVFMKTIQRCNTGERSLSLLNCEEIKSQFEGFVKDIMLNKEETKKENSFEMQKGDQNPQIAAHVISEASSKTTSVLQWAEKGYYTMSNNLVTLENGKQLTVKRQGLYYIYAQVTFCSNREASSQAPFIASLCLKSPGRFERILLRAANTHSSAKPCGQQSIHLGGVFELQPGASVFVNVTDPSQVSHGTGFTSFGLLKL
modifications: extracellular domain
notes: recombinant soluble CD40 ligand prepared at Biogen, cross-linking agent
